pEC50: −log10 of the molar value.
How the values were obtained:
[1] = biological target: T1, IRAK4 (Homo sapiens, UniProt Q9NWZ3); test: ALE THP1 HTRF (Advanced Lipoxidation End Product THP1 Homogeneous Time Resolved Fluorescence); format: cell-based; details: THP1 cells
T1 construct: endogenous in cells; host or cells: THP-1 cells
T1 sequence (Q9NWZ3 1-460): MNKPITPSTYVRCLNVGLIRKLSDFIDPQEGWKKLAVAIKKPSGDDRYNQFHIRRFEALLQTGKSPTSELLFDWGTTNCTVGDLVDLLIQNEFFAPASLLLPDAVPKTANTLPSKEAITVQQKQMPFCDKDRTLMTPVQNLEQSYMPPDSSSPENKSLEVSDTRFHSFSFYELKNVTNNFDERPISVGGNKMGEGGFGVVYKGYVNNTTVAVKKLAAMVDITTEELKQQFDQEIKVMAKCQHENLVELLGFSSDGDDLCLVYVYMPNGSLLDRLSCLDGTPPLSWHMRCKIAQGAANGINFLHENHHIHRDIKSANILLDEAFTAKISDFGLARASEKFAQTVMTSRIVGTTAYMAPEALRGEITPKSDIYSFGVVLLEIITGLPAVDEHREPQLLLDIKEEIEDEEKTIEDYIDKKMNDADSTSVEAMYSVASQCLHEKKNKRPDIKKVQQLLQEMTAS
Method in brief: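 HTRF read-out of IRAK4 protein: anti-IRAK4 d2 and cryptate antibody pair added to BCA-normalized lysates, overnight dark room-temperature incubation. Lysis ran 45 min with shaking at room temperature; buffer, cryptate-only and negative controls included.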

[2] = biological target: T1, IRAK4; test: LVL THP1 HTRF (THP1 Homogeneous Time Resolved Fluorescence); format: cell-based; details: THP1 cells, 18 h incubation with compound; for DC50: read-out: LVL THP1 HTRF EC50
Method in brief: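 IRAK4 HTRF read-out (665/615 nm ratio, anti-IRAK4 d2 acceptor and K donor, 18 h dark incubation at room temperature) on lysates of THP-1 cells. Cells were treated 18 h at 37° C. with 20 nL compound in DMSO, in colorless RPMI with 10% FBS, with a duplicate CTG plate.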

ALE THP1 HTRF YMIN [1] | pEC50 [1] | LVL THP1 HTRF YMIN [2] | DC50 [2] | Compound
10.1% | 9.00 | 2.0% | 8 nM | C[C@H](C#N)Nc1cc(-n2ncc3cc(C#N)cnc32)ncc1-n1cc(C2CCC(CCN3CCN(c4ccc(C5CCC(=O)NC5=O)cc4)[C@@H](C)C3)CC2)nn1 (stereo in doubt) [P-156]
7.7% | 7.74 | – | – | N#Cc1cnc2c(cnn2-c2cc(NC3CCC(C(N)=O)CC3)c(C(=O)N[C@H]3CC[C@H](CCN4CCN(c5ccc(C6CCC(=O)NC6=O)cc5)CC4)CC3)cn2)c1 (stereo partly drawn) [P-137]
42.1% | 5.89 | – | – | CCNc1cc(Nc2ccc3ncc(F)cc3n2)ncc1C(=O)N[C@H]1CC[C@H](CCN2CCN(c3ccc(C4CCC(=O)NC4=O)cc3)CC2)CC1 (stereo partly drawn) [P-138]
6.4% | 7.52 | – | – | CC1(Nc2cc(-n3ncc4cc(C#N)cnc43)ncc2-n2cc([C@H]3CC[C@H](CCN4CCN(c5ccc(C6CCC(=O)NC6=O)cc5)CC4)CC3)nn2)CC1 (stereo partly drawn) [P-140]
6.1% | > 9.00 | – | – | O=C1CCC(c2ccc(N3CCN(CC[C@H]4CC[C@H](NC(=O)c5cnc(Nc6ccc7[nH]c(=O)sc7c6)cc5NC5CC5)CC4)CC3)cc2)C(=O)N1 (stereo partly drawn) [P-141]
9.7% | 7.34 | – | – | C[C@H](C#N)Nc1cc(-n2ncc3cc(C#N)c(N)nc32)ncc1C(=O)N[C@H]1CC[C@H](CCN2CCN(c3ccc(C4CCC(=O)NC4=O)cc3)[C@H](C)C2)CC1 (stereo partly drawn) [P-142]
6.5% | 8.40 | – | – | C[C@H](C#N)Nc1cc(-n2ncc3cc(C#N)cnc32)ncc1C(=O)N[C@H]1CC[C@H](CCN2CCC(c3ccc(C4CCC(=O)NC4=O)cc3)CC2)CC1 (stereo partly drawn) [P-143]
5.9% | 8.40 | 0.8% | 13 nM | C[C@H](C#N)Nc1cc(-c2ccc3cc(C#N)cnn23)ncc1C(=O)N[C@H]1CC[C@H](CCN2CCN(c3ccc(C4CCC(=O)NC4=O)cc3)CC2)CC1 (stereo partly drawn) [P-144]
11.0% | 7.46 | – | – | C[C@H](C#N)Nc1cc(-n2cc(F)c3cc(C#N)cnc32)ncc1C(=O)N[C@H]1CC[C@H](CCN2CCN(c3ccc(C4CCC(=O)NC4=O)cc3)CC2)CC1 (stereo partly drawn) [P-145]
8.0% | 9.00 | – | – | C[C@H](C#N)Nc1cc(-n2ncc3cc(C#N)c(N)nc32)ncc1C(=O)N[C@H]1CC[C@H](CCN2CCC(c3ccc(C4CCC(=O)NC4=O)cc3)CC2)CC1 (stereo partly drawn) [P-146]
9.0% | 7.72 | – | – | C[C@H](C#N)Nc1cc(-c2cnc3cc(C#N)cnn23)ncc1C(=O)N[C@H]1CC[C@H](CCN2CCN(c3ccc(C4CCC(=O)NC4=O)cc3)CC2)CC1 (stereo partly drawn) [P-147]
11.0% | 7.80 | – | – | C[C@H](C#N)Nc1cc(-c2cnc3cc(C#N)cnn23)ncc1C(=O)N[C@H]1CC[C@H](CCN2CCC(c3ccc(C4CCC(=O)NC4=O)cc3)CC2)CC1 (stereo partly drawn) [P-148]
7.1% | 8.40 | – | – | C[C@H](C#N)Nc1cc(-n2ncc3cc(C#N)cnc32)ncc1C(=O)N[C@H]1CC[C@H](CCN2[C@@H](C)CN(c3ccc(C4CCC(=O)NC4=O)cc3)C[C@@H]2C)CC1 (stereo partly drawn) [P-149]
6.2% | 8.15 | <0.5% | 25 nM | C[C@H](C#N)Nc1cc(-n2ncc3cc(C#N)cnc32)ncc1C(=O)N[C@H]1CC[C@H](CCN2CCN(c3ccc(C4CCC(=O)NC4=O)cc3)[C@H](C)C2)CC1 (stereo partly drawn) [P-150]
6.0% | 8.10 | – | – | C[C@H](C#N)Nc1cc(-n2ncc3cc(C#N)cnc32)ncc1C(=O)N[C@H]1CC[C@H](CCN2C[C@@H](C)N(c3ccc(C4CCC(=O)NC4=O)cc3)C[C@@H]2C)CC1 (stereo partly drawn) [P-151]
15.8% | 7.70 | – | – | C[C@H](C#N)Nc1cc(-n2ncc3cc(C#N)cnc32)ncc1C(=O)N[C@H]1CC[C@H](CCN2CCN(c3ccc(C4CCC(=O)NC4=O)cn3)[C@H](C)C2)CC1 (stereo partly drawn) [P-152]

ALE THP1 HTRF YMIN [1] | pEC50 [1] | LVL THP1 HTRF YMIN [2] | DC50 [2] | Compound
4.5% | 7.77 | – | – | COc1cc(N2C[C@H](C)N(CC[C@H]3CC[C@H](NC(=O)c4cnc(-n5ncc6cc(C#N)cnc65)cc4N[C@H](C)C#N)CC3)[C@@H](C)C2)ccc1C1CCC(=O)NC1=O (stereo partly drawn) [P-153]
10.0% | 7.66 | – | – | N#Cc1cnc2c(cnn2-c2cc(NC3CC3)c(-n3cc([C@H]4CC[C@H](CCN5CCN(c6ccc(C7CCC(=O)NC7=O)cc6)CC5)CC4)nn3)cn2)c1 (stereo partly drawn) [P-154]
10.0% | 8.70 | – | – | CC1(Nc2cc(-n3ncc4cc(C#N)c(N)nc43)ncc2-n2cc([C@H]3CC[C@H](CCN4CCN(c5ccc(C6CCC(=O)NC6=O)cc5)CC4)CC3)nn2)CC1 (stereo partly drawn) [P-157]
16.0% | 7.19 | – | – | C[C@H](C#N)Nc1cc(-n2ncc3cc(C#N)cnc32)ncc1C(=O)N[C@H]1CC[C@H](CCN2C[C@H](C)N(c3ccc(C4CCC(=O)NC4=O)cc3)C[C@@H]2C)CC1 (stereo partly drawn) [P-158]
6.1% | 8.15 | <0.5% | 18 nM | C[C@H](C#N)Nc1cc(-n2ncc3cnc(N)nc32)ncc1C(=O)N[C@H]1CC[C@H](CCN2CCN(c3ccc(C4CCC(=O)NC4=O)cc3)CC2)CC1 (stereo partly drawn) [P-159]
6.6% | 8.22 | <0.5% | 12 nM | COc1cc(N2CCN(CC[C@H]3CC[C@H](NC(=O)c4cnc(-n5ncc6cc(C#N)c(N)nc65)cc4N[C@H](C)C#N)CC3)C[C@H]2C)ccc1C1CCC(=O)NC1=O (stereo partly drawn) [P-161]
6.4% | 8.52 | 0.6% | 8 nM | N#Cc1cc2cnn(-c3cc(NC4CC4)c(-n4cc([C@H]5CC[C@H](CCN6CCN(c7ccc(C8CCC(=O)NC8=O)cc7)CC6)CC5)nn4)cn3)c2nc1N (stereo partly drawn) [P-162]
8.4% | 7.92 | <0.5% | 26 nM | C[C@H](C#N)Nc1cc(-n2ccc3cnc(N)nc32)ncc1C(=O)N[C@H]1CC[C@H](CCN2CCN(c3ccc(C4CCC(=O)NC4=O)cc3)CC2)CC1 (stereo partly drawn) [P-163]
5.4% | 8.70 | <0.5% | 6 nM | C[C@H](C#N)Nc1cc(-n2ncc3cc(C#N)c(N)nc32)ncc1C(=O)N[C@H]1CC[C@H](CCN2CCN(c3ccc(C4CCC(=O)NC4=O)cc3F)[C@H](C)C2)CC1 (stereo partly drawn) [P-165]
8.1% | 8.10 | <0.5% | 21 nM | C[C@H](C#N)Nc1cc(-n2ncc3cc(C#N)c(N)nc32)ncc1C(=O)N[C@H]1CC[C@H](CCN2CCN(c3ccc(C4CCC(=O)NC4=O)cn3)[C@H](C)C2)CC1 (stereo partly drawn) [P-166]
5.9% | 8.70 | <0.5% | 5 nM | COc1cc(C2CCC(=O)NC2=O)ccc1N1CCN(CC[C@H]2CC[C@H](NC(=O)c3cnc(-n4ncc5cc(C#N)c(N)nc54)cc3N[C@H](C)C#N)CC2)C[C@H]1C (stereo partly drawn) [P-167]
5.5% | 8.22 | <0.5% | 3 nM | C[C@H](C#N)Nc1cc(-n2ncc3cc(C#N)c(N)nc32)ncc1C(=O)N[C@H]1CC[C@H](CCN2CCN(c3ccc(C4CCC(=O)NC4=O)cc3Cl)[C@H](C)C2)CC1 (stereo partly drawn) [P-168]
31.2% | 6.70 | 2.7% | 14 nM | CS(=O)(=O)N1CCC(Nc2cc(-n3ncc4cc(C#N)cnc43)ncc2-n2cc([C@H]3CC[C@H](CCN4CCN(c5ccc(C6CCC(=O)NC6=O)cc5)CC4)CC3)nn2)CC1 (stereo partly drawn) [P-174]
6.7% | 8.40 | 6.4% | 32 nM | C[C@H](C#N)Nc1cc(-n2ncc3cc(C#N)c(N)nc32)ncc1C(=O)N[C@H]1CC[C@H](CCN2CCN(c3ccc(C4CCC(=O)NC4=O)cc3)C(=O)C2)CC1 (stereo partly drawn) [P-177]
7.5% | 7.92 | 0.8% | 1 nM | C[C@H](C#N)Nc1cc(-n2ncc3cc(C#N)c(N)nc32)ncc1C(=O)N[C@H]1CC[C@H](CCN2CCN(c3ccc(C4CCC(=O)NC4=O)cc3)[C@@H](C)C2)CC1 (stereo partly drawn) [P-178]
27.7% | 6.77 | 18.3% | 112 nM | C[C@H](C#N)Nc1cc(-n2ncc3cc(C#N)c(N)nc32)ncc1C(=O)N[C@H]1CC[C@H](CCN2CCN(c3ccc(C4CCC(=O)NC4=O)cc3)C(C(F)(F)F)C2)CC1 (stereo partly drawn) [P-181]

Compound | ALE THP1 HTRF YMIN [1] | pEC50 [1] | LVL THP1 HTRF YMIN [2] | DC50 [2]
C[C@H](C#N)Nc1cc(-n2ncc3cc(C#N)cnc32)ncc1C(=O)N[C@H]1CC[C@H](CCN2CC3CCC(C2)N3c2ccc(C3CCC(=O)NC3=O)cc2)CC1 (stereo partly drawn) [P-164] | 64.0% | 6.87 | 16.8% | > 5000 nM
C[C@H](C#N)Nc1cc(-n2ncc3cc(C#N)cnc32)ncc1C(=O)N[C@H]1CC[C@H](CCN2C[C@H]3C[C@@H](C2)N3c2ccc(C3CCC(=O)NC3=O)cc2)CC1 (stereo partly drawn) [P-180] | 7.5% | 8.22 | 18.9% | 702 nM

Reference: patent US20240109881A1, “Heteroaryl Compounds as Ligand Directed Degraders of IRAK4” (Bristol-Myers Squibb Company, priority 2022, published 2024)
